One assay has as its target T1, KRAS (G12C)::SOS1 (Homo sapiens, UniProt P01116, C118S/C51S/C80L/G12C).
T1 construct: KRAS (G12C) 1-169, N-terminal 6His-tag for purification, cleaved off; 6His-tag (N, cleaved yes); made in house
Kind of assay: KRAS::SOS1 AlphaScreen binding assay, KRAS G12C. The note with it: read-out: KRASG12C IC50. The source says:
This assay can be used to examine the potency with which compounds according to the invention binding to (mutated) KRAS inhibit the protein-protein interaction between SOS1 and (mutated) KRAS e.g., KRAS WT, KRAS G12C, KRAS G12D, KRAS G12V, KRAS G13D. […] Low IC50 values in this assay setting are indicative of strong inhibition of protein-protein interaction between SOS1 and KRAS:
These assays measure the inhibitory effect of compounds on KRAS mutant protein-protein interactions using the Alpha Screen technology by Perkin Elmer
The following (mutant) enzyme forms of KRAS and interacting proteins are used in these assays at the given concentrations: • KRAS (G12D) 1-169, N-terminal 6His-tag, C-terminal avi-tag (Xtal BioStructures, Inc.); final assay concentration 10 nM and SOS1 564-1049, N-terminal 229 GST-tag, TEV cleavage site (Viva Biotech Ltd); final assay concentration 5 nM; • KRAS (G12C) 1-169, N-terminal 6His-tag for purification, cleaved off, C-terminal avi-tag, biotinylated, mutations: C51S, C80L, C118S (in house); final assay concentration 7.5 nM and SOS1 564-1049, N-terminal 229 GST-tag, TEV cleavage site (Viva Biotech Ltd); final assay concentration 5 nM; • KRAS (G12V) 1-169, N-terminal 6His-tag for purification, cleaved off, C-terminal avi-tag, biotinylated, TEV cleavage site, mutation: C118S, GDP loaded (in house); final assay concentration 10 nM and SOS1 564-1049, N-terminal 229 GST-tag, TEV cleavage site (Viva Biotech Ltd); final assay concentration 10 nM; • KRAS (G13D) 1-169, N-terminal 6His-tag for purification, cleaved off, C-terminal avi-tag, biotinylated, TEV cleavage site, mutation: C118S, GDP loaded (in house); final assay concentration 10 nM and SOS1 564-1049, N-terminal 229 GST-tag, TEV cleavage site (Viva Biotech Ltd); final assay concentration 10 nM; • KRAS (WT) 1-169, N-terminal 6His-tag for purification, cleaved off, C-terminal avi-tag, biotinylated, TEV cleavage site, mutation: C118S, GDP loaded (in house); final assay concentration 10 nM and SOS1 564-1049, N-terminal 229 GST-tag, TEV cleavage site (Viva Biotech Ltd); final assay concentration 10 nM.
Test compounds dissolved in DMSO are dispensed onto assay plates (Proxiplate 384 PLUS, white, PerkinElmer; 6008289) using an Access Labcyte Workstation with the Labcyte Echo 55×. For the chosen highest assay concentration of 100 μM, 150 nL of compound solution are transferred from a 10 mM DMSO compound stock solution. A series of eleven fivefold dilutions per compound are transferred to the assay plate, compound dilutions are tested in duplicates. DMSO are added as backfill to a total volume of 150 nL.
The assays run on a fully automated robotic system in a darkened room below 100 Lux. To 150 nl of compound dilution 10 μl of a mix including KRAS mutant protein, SOS1 (final assay concentrations see above) and GDP nucleotide (Sigma G7127; final assay concentration 10 μM) in assay buffer (1×PBS, 0.1% BSA, 0.05% Tween 20) are added into columns 1-24.
After 30 minutes incubation time 5 μl of Alpha Screen bead mix in assay buffer are added into columns 1-23. Bead mix consists of AlphaLISA Glutathione Acceptor Beads (PerkinElmer, Cat No AL109) and AlphaScreen Streptavidin Donor Beads (PerkinElmer Cat No 6760002) in assay buffer at a final assay concentration of 10 μg/ml each.
Plates are kept at room temperature in a darkened incubator. After an additional 60 minutes incubation time the signal is measured in a PerkinElmer Envision HTS Multilabel Reader using the AlphaScreen specs from PerkinElmer.
Each plate contains up to 16 wells of a negative control depending on the dilution procedure (platewise or serial) (DMSO instead of test compound; with KRAS mutant::SOS1 GDP mix and bead mix; column 23) and 16wells of a positive control (DMSO instead of test compound; with KRAS mutant::SOS1 GDP mix w/o bead mix; column 24).
As internal control known inhibitors of KRAS mutant::SOS1 interaction can be measured on each compound plate. […]
For orientation: Bead proximity is the source of the signal in Alpha formats.

For another assay, the target named is KRAS G12C Ba/F3 (Homo sapiens, UniProt P01116, G12C, cells depend on it). The assay can be described thus: Ba/F3 proliferation assay, KRAS G12C. The assay is classed as cell-based. The note with it: 72 h, AlamarBlue, read-out: KRAS G12C Ba/F3 IC50. On the procedure: Plasmids containing KRASG12 mutants(i.e. G12D, G12C, G12V) are obtained from GeneScript. To generate KRASG12-dependent Ba/F3 models, Ba/F3 cells are transduced with retroviruses containing vectors that harbor KRASG12 isoforms. Platinum-E cells (Cell Biolabs) are used for retrovirus packaging. Retrovirus is added to Ba/F3 cells. To ensure infection, 4 μg/mL polybrene is added and cells are spinfected. […] Cells with an infection efficiency of 10% to 20% are further cultivated and puromycin selection with 1 μg/mL is initiated. As a control, parental Ba/F3 cells are used to show selection status. Selection is considered successful when parental Ba/F3 cells cultures died. To evaluate the transforming potential of KRASG12 mutations, the growth medium is no longer supplemented with IL-3. Ba/F3 cells harboring the empty vector are used as a control. Approximately ten days before conducting the experiments, puromycin is left out.
Compounds are added using an Access Labcyte Workstation with a Labcyte Echo 550 or 555 accoustic dispenser. All treatments are performed in technical duplicates. […] AlamarBlue™ (ThermoFisher), a viability stain, is added and fluorescence measured in the PerkinElmer Envision HTS Multilabel Reader. The raw data are imported into and analyzed with the Boehringer Ingelheim proprietary software MegaLab (curve fitting based on the program PRISM, GraphPad Inc.).
Background: Resazurin is reduced to fluorescent resorufin, in cell work by metabolically active cells.

The next assay has as its system SAS cells. The assay can be described thus: SAS CTG proliferation assay (120 h) (HNSCC, wt amplified). The assay is classed as cell-based. On the procedure: SAS cells (JCRB0260) are dispensed into 384-well plates, flat and clear bottom (Greiner, PNr. 781091) at a density of 300 cells per well in 60 μL DMEM:F12 (Gibco 31330-038)+10% Fetal Calf Serum (HyClone, PNr.: SH30084.03) and incubated at 37° C. in a CO2 incubator overnight The next day, compounds (10 mM stock in DMSO) are added with the ECHO acoustic liquid handler system (Beckman Coulter), including DMSO controls. Plates are incubated for 120 h, and cell viability is measured using CellTiter-Glo luminescent cell viability reagent (Promega product code G7570). Viability (stated as percent of control) is defined as relative luminescence units RLU of each well divided by the RLU of cells in DMSO controls.

Sequence of KRAS G12C Ba/F3 (P01116 whole entry G12C, canonical isoform): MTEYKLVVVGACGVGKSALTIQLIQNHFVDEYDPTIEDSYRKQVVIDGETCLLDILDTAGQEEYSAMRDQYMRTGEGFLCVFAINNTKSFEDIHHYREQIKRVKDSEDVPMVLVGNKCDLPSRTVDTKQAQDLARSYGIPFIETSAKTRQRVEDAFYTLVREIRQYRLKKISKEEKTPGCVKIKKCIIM
T1 sequence (P01116 1-169 isoform P01116-2 G12C/C51S/C80L/C118S): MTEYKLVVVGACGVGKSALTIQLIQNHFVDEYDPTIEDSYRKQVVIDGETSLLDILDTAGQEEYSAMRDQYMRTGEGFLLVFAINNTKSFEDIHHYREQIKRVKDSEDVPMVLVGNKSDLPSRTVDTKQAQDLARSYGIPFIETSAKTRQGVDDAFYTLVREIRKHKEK

Turning to `C[C@H](Oc1cc(Nc2cnccn2)nc(-c2noc3c2CCC[C@@]32CCCc3sc(N)c(C#N)c32)n1)[C@@H]1CCCN1C` [II-14], the IC50 (in general, the point on the concentration scale where inhibition reaches its midpoint) worked out at 3 nM on KRAS (G12C)::SOS1 and 285 nM in the assay with SAS cells. The GI50 on KRAS G12C Ba/F3 worked out at 15 nM.
For `C[C@H](Oc1cc(Nc2ccncn2)nc(-c2noc3c2CCC[C@@]32CCCc3sc(N)c(C#N)c32)n1)[C@@H]1CCCN1C` [II-15] the same measures were 3 nM, 87 nM and 29 nM.
For `C[C@H](Oc1cc(Nc2ncccn2)nc(-c2noc3c2CCC[C@@]32CCCc3sc(N)c(C#N)c32)n1)[C@@H]1CCCN1C` [II-17] the same measures were 2 nM, 104 nM and 19 nM.
In the case of `C[C@H](Oc1cc(Nc2cccnn2)nc(-c2noc3c2CCC[C@@]32CCCc3sc(N)c(C#N)c32)n1)[C@@H]1CCCN1C` [II-18], the figures for the IC50 at KRAS (G12C)::SOS1 and with SAS cells were 2 nM and 171 nM, respectively. Besides, the GI50 at KRAS G12C Ba/F3 was 37 nM.
Take `C[C@H](Oc1cc(O[C@H]2CN(C)C(C)(C)C2)nc(-c2noc3c2CCC[C@@]32CCCc3sc(N)c(C#N)c32)n1)[C@@H]1CCCN1C` [II-19]: the figures for the IC50 at KRAS (G12C)::SOS1 and with SAS cells were 4 nM and 297 nM, respectively. Moreover, the GI50 at KRAS G12C Ba/F3 turned out to be 218 nM.
For `C[C@H](Oc1cc(N(C)CCN(C)C)nc(-c2noc3c2CCC[C@@]32CCCc3sc(N)c(C#N)c32)n1)[C@@H]1CCCN1C` [II-20] the same measures were 10 nM, 327 nM and 376 nM.
The corresponding values for `C[C@H](Oc1cc(OCC2(N(C)C)CC2)nc(-c2noc3c2CCC[C@@]32CCCc3sc(N)c(C#N)c32)n1)[C@@H]1CCCN1C` [II-21] are 3 nM, 577 nM and 195 nM.
Turning to `C[C@H](Oc1cc(OCC2(N(C)C)COC2)nc(-c2noc3c2CCC[C@@]32CCCc3sc(N)c(C#N)c32)n1)[C@@H]1CCCN1C` [II-22], the IC50 came out at 2 nM on KRAS (G12C)::SOS1 and 84 nM in the assay on SAS cells. Further, the GI50 at KRAS G12C Ba/F3 came out at 22 nM.
On to `COc1c(OCC2(N(C)C)COC2)nc(-c2noc3c2CCC[C@@]32CCCc3sc(N)c(C#N)c32)nc1O[C@@H](C)[C@@H]1CCCN1C` [II-25], for which the IC50 was found to be 2 nM at KRAS (G12C)::SOS1 and 55 nM with SAS cells. Also, the GI50 on KRAS G12C Ba/F3 turned out to be 85 nM.
In the case of `C[C@H]1CN(C)CCCN1c1cc(O[C@@H]2CNC2(C)C)nc(-c2noc3c2CCC[C@@]32CCCc3sc(N)c(C#N)c32)n1` [II-28], the IC50 at KRAS (G12C)::SOS1 was 6 nM; with SAS cells, 4450 nM. Further, on KRAS G12C Ba/F3, the GI50 was 2080 nM.
`C[C@H](Oc1cc(O[C@@H]2CNC[C@@H]2F)nc(-c2noc3c2CCC[C@@]32CCCc3sc(N)c(C#N)c32)n1)[C@@H]1CCCN1C` [II-29]: the IC50 is 2 nM at KRAS (G12C)::SOS1 and 1050 nM with SAS cells. At KRAS G12C Ba/F3, the GI50 was determined as 79 nM.
For the compound `CO[C@@H]1C[C@@H]([C@H](C)Oc2cc(O[C@@H]3CNC3(C)C)nc(-c3noc4c3CCC[C@@]43CCCc4sc(N)c(C#N)c43)n2)N(C)C1` [II-30], the IC50 at KRAS (G12C)::SOS1 turned out to be 1 nM; with SAS cells it was 267 nM. At KRAS G12C Ba/F3, the GI50 was 219 nM.
The corresponding values for `C[C@H](Oc1cc(O[C@@H]2CNC2(C)C)nc(-c2noc3c2CCC[C@@]32CCCc3sc(N)c(C#N)c32)n1)[C@@H]1C[C@@H](F)CN1C` [II-31] are 1 nM, 402 nM and 203 nM.
